Common to all, as to assay type: biochemical
One assay deals with T1, Itk (Homo sapiens, UniProt Q08881).
T1 construct: Kinases are expressed as either kinase domains or full length constructs; made in house
T1 sequence (Q08881 1-620): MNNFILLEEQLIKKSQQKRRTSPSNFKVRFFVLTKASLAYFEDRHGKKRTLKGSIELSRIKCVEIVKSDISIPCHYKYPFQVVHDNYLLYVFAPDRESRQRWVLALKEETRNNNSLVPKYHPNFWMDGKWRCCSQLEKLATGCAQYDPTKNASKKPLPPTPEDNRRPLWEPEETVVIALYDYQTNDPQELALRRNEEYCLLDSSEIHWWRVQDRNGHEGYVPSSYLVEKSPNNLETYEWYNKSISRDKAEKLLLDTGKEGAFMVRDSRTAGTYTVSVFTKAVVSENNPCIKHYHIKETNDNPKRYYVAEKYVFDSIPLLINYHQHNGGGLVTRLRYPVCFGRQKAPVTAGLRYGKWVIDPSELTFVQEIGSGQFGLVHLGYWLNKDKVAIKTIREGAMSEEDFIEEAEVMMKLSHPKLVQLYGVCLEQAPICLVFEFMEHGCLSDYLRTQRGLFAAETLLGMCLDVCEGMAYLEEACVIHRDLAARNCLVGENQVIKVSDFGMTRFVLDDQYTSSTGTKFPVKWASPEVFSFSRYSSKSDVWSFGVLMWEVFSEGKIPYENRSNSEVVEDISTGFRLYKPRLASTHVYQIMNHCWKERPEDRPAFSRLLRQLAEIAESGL
Put plainly: Kinase inhibition assay (33P transfer), Itk. As to conditions: Table 3, class symbols; read-out: Itk-1. The gist of the method:
(§1)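 Each enzyme, purified to near homogeneity by affinity chromatography, was incubated with ATP carrying 33P and a substrate polymer fixed to the plate. Unbound label was removed with dilute phosphoric acid (0.5%) before adding scintillant and counting. Potency is given as the compound level cutting label uptake by 50%.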

Another assay addresses T2, ErbB2 (Homo sapiens, UniProt P04626).
T2 construct: Kinases are expressed as either kinase domains or full length constructs; made in house
The experiment in a line: Kinase inhibition assay (33P transfer), ErbB2. As to conditions: read-out: ErbB2-2. The gist of the method:
as §1

The next assay concerns the target T3, AKT (Homo sapiens, UniProt Q9Y243).
T3 construct: Kinases are expressed as either kinase domains or full length constructs; made in house
Put plainly: Kinase inhibition assay (33P transfer), AKT. As to conditions: Table 2, class symbols A-E; read-out: AKT3-1. The gist of the method:
(§2)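 Filterless plate radiometric format: immobilized poly(Glu,Tyr) 4:1 or poly(Arg,Ser) 3:1, 33P-labelled ATP, tagged recombinant kinase (some with regulatory partners). Incorporated label counted after phosphoric acid wash.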

The next assay deals with T4, IGFR-1 (Homo sapiens, UniProt P08069).
T4 construct: Kinases are expressed as either kinase domains or full length constructs; made in house
T4 sequence (P08069 31-1367): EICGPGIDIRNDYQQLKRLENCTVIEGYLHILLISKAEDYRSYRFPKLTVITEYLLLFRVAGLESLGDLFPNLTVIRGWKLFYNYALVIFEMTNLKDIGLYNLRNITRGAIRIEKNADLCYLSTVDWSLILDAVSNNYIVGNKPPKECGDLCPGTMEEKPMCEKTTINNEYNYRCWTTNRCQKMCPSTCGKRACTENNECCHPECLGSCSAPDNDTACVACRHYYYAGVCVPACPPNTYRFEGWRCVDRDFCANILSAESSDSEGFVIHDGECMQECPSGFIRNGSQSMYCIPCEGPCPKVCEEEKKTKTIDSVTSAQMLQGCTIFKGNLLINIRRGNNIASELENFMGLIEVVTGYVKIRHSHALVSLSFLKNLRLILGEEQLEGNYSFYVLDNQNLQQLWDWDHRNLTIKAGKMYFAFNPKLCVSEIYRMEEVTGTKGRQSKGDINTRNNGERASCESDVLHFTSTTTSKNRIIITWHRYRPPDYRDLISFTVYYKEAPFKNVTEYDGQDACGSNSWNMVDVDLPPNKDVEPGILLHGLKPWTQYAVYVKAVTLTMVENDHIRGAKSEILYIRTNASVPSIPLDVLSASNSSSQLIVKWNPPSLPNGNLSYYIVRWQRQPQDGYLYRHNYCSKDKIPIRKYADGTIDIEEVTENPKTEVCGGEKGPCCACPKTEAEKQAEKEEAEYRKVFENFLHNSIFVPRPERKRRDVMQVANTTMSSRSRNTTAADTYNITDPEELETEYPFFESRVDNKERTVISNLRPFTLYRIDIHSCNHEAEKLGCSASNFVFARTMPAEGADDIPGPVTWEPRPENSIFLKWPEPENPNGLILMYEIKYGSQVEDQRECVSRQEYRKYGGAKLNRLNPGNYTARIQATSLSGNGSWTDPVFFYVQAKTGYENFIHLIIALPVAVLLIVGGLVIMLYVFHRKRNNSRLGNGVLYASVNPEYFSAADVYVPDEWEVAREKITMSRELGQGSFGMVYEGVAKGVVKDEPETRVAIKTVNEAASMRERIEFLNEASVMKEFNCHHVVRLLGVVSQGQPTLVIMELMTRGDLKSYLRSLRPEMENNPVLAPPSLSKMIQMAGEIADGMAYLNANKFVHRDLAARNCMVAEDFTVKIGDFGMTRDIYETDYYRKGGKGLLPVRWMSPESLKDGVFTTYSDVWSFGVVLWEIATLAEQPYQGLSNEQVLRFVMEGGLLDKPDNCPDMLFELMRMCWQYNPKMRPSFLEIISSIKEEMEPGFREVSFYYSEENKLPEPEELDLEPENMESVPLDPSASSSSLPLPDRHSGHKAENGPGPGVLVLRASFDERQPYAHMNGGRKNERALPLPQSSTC
The experiment in a line: Kinase inhibition assay (33P transfer), IGFR-1. As to conditions: Table 2, class symbols A-E.

The next assay deals with T5, Kdr (Homo sapiens, UniProt P35968).
T5 construct: Kinases are expressed as either kinase domains or full length constructs; made in house
T5 sequence (P35968 20-1356, species assumed): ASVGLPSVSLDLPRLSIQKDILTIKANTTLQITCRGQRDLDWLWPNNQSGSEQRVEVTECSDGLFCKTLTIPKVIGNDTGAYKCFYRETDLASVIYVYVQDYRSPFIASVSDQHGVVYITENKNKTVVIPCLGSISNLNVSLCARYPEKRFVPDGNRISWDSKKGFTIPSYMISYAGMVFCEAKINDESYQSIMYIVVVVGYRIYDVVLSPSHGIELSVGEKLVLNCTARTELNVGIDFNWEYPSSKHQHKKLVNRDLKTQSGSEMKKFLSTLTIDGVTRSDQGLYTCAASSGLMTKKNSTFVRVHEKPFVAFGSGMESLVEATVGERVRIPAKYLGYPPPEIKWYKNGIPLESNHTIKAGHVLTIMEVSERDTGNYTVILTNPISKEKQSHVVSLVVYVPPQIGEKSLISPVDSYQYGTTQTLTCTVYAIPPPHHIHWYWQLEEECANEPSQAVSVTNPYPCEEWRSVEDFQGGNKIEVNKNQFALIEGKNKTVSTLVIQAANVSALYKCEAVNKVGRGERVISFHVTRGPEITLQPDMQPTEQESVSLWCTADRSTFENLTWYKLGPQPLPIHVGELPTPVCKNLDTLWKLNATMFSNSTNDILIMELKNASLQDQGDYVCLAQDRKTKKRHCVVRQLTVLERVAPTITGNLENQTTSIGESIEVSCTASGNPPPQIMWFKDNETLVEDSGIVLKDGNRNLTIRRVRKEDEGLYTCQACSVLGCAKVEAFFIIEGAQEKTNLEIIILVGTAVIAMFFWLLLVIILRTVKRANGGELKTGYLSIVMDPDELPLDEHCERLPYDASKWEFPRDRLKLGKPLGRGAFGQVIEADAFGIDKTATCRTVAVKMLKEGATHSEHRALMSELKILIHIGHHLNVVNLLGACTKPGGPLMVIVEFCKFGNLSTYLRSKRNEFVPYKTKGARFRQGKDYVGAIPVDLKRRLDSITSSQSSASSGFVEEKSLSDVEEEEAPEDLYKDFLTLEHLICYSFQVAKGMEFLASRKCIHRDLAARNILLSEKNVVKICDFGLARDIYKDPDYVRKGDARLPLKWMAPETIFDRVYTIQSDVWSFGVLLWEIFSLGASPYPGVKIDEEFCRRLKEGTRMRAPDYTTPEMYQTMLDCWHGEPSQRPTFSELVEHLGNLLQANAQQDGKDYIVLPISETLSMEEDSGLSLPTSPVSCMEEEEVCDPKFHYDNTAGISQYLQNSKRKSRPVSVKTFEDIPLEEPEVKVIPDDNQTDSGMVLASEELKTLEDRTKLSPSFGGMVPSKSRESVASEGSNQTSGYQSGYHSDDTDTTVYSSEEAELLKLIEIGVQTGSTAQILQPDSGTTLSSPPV
The experiment in a line: Kinase inhibition assay (33P transfer), Kdr. As to conditions: Table 3, class symbols; read-out: KDR-1. A digest of the protocol:
as §2

In another assay the target is T6, Lck (Homo sapiens, UniProt P06239).
T6 construct: Kinases are expressed as either kinase domains or full length constructs; made in house
T6 sequence (P06239 whole entry, species assumed, the tested form may be a part): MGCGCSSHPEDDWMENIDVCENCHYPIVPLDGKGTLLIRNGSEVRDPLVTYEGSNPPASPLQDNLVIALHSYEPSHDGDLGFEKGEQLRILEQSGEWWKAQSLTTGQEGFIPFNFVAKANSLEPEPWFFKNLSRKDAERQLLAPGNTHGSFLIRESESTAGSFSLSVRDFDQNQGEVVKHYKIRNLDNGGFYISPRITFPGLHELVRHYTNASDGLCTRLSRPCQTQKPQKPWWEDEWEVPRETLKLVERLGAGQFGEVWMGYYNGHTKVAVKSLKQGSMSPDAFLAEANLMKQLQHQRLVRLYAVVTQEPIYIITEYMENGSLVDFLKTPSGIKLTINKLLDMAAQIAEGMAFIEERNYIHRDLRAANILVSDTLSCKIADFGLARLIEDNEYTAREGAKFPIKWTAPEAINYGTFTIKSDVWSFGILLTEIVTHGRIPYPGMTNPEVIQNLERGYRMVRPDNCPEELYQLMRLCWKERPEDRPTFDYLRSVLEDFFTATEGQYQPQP
Put plainly: Kinase inhibition assay (33P transfer), Lck. As to conditions: Table 3, class symbols; read-out: Lck-1. A digest of the protocol: as §2

The target in a further assay is T7, PDGFRB (Homo sapiens, UniProt P09619).
T7 construct: Kinases are expressed as either kinase domains or full length constructs; made in house
The experiment in a line: Kinase inhibition assay (33P transfer), PDGFRB. As to conditions: read-out: PDGFRB-1.

The target in a further assay is T8, c-Met (Homo sapiens, UniProt P08581).
T8 construct: Kinases are expressed as either kinase domains or full length constructs; made in house
Put plainly: Kinase inhibition assay (33P transfer), c-Met. As to conditions: Table 2, class symbols A-E; read-out: Met-1. A digest of the protocol: as §1

The target of a further assay is T9, Zap-70 (Homo sapiens, UniProt P43403).
T9 construct: Kinases are expressed as either kinase domains or full length constructs; made in house
T9 sequence (P43403 1-619): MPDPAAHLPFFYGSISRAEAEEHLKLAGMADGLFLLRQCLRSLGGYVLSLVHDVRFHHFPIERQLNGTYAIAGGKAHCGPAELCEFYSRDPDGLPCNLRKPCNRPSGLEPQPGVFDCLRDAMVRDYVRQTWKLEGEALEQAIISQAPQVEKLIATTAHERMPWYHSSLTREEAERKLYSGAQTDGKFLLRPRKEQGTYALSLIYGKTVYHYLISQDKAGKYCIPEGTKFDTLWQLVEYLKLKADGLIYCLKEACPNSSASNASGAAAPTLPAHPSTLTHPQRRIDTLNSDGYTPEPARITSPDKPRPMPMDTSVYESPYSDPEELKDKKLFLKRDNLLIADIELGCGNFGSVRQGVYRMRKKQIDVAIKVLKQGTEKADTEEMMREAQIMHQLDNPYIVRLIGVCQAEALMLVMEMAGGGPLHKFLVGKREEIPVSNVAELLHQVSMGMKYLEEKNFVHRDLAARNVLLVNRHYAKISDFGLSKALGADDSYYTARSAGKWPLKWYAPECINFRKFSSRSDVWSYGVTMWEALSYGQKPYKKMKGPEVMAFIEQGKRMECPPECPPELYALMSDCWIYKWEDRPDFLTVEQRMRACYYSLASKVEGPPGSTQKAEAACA
Put plainly: Kinase inhibition assay (33P transfer), Zap-70. As to conditions: Table 3, class symbols; read-out: Zap-1. A digest of the protocol:
as §2

The target in a further assay is T10, EGFR (Homo sapiens, UniProt P00533).
T10 construct: Kinases are expressed as either kinase domains or full length constructs; made in house
T10 sequence (P00533 25-1210, species assumed): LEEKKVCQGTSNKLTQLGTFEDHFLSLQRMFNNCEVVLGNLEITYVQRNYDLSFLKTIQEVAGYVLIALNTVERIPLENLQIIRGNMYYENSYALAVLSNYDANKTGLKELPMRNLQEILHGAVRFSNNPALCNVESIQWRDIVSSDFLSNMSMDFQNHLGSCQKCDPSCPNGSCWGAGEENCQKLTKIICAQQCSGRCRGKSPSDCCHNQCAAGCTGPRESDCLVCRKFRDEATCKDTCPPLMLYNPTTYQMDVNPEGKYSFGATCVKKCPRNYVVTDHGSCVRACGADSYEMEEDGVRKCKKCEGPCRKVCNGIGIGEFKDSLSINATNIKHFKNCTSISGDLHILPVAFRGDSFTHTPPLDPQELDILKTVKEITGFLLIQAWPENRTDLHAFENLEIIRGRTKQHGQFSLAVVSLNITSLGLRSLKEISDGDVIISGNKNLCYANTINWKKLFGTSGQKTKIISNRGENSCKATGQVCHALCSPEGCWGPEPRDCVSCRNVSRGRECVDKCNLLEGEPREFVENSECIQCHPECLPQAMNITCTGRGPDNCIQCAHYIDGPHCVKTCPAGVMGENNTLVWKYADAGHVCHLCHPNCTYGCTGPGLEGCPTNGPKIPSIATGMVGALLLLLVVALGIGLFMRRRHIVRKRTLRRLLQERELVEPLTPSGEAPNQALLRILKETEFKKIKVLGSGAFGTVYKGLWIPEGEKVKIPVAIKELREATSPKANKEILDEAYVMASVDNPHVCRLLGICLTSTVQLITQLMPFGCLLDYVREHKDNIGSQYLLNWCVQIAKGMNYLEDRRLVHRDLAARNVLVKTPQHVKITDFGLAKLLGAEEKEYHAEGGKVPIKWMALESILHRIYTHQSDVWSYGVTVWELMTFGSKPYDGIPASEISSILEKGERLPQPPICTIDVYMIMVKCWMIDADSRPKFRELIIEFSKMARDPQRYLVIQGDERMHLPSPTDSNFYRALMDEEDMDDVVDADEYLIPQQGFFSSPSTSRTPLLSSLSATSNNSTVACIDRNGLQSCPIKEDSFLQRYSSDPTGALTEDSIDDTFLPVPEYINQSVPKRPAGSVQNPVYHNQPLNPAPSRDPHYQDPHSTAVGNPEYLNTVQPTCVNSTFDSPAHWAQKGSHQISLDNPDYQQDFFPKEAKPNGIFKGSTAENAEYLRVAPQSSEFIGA
Put plainly: Kinase inhibition assay (33P transfer), EGFR. As to conditions: Table 2, class symbols A-E; read-out: EGFR-1. The gist of the method: as §1

SMILES strings stand for the structures. Some results are limits rather than exact numbers.

T3 sequence (Q9Y243 whole entry, the tested form may be a part): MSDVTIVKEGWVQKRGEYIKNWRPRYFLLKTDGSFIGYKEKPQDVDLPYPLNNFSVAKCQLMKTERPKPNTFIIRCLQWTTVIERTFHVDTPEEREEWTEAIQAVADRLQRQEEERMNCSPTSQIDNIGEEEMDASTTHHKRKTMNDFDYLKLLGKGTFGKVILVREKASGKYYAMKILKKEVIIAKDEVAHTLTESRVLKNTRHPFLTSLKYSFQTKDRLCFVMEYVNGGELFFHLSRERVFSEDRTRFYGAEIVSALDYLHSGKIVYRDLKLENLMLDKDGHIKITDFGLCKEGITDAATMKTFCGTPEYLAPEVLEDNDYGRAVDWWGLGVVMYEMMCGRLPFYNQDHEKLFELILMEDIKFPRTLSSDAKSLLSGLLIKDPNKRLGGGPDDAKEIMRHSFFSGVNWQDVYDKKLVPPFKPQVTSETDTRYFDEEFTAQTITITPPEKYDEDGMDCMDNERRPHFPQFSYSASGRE

As to `CCOc1cccc(Nc2ncnc(Nc3cc(-c4ccc(C(=O)OC)cc4)n[nH]3)n2)c1` [Compound 812], the IC50 at Itk is 8.11 to 10.4 µM; at ErbB2, 5.56 to 8.11 µM; on AKT, above 10.4 µM; at IGFR-1 it was 0.927 to 5.56 µM; on Kdr, 8.11 to 10.4 µM; at Lck, 0.927 to 5.56 µM. For the same molecule, the IC50 at PDGFRB is above 10.4 µM; on c-Met, 0.927 to 5.56 µM; on Zap-70, above 10.4 µM; at EGFR, above 10.4 µM.

In the case of `CCOC(=O)c1cccc(Nc2ncnc(Nc3cc(-c4ccc(C(=O)OC)cc4)n[nH]3)n2)c1` [Compound 813], the IC50 was 0.871 to 5.22 µM at Itk; above 9.79 µM on ErbB2; above 9.79 µM on AKT; above 9.79 µM against IGFR-1; above 9.79 µM on Kdr; above 9.79 µM on Lck. For the same molecule, the IC50 is 0.871 to 5.22 µM at PDGFRB, above 9.79 µM at c-Met, above 9.79 µM at Zap-70 and above 9.79 µM on EGFR.

For the molecule `COC(=O)c1ccc(-c2cc(Nc3ncnc(NCc4ccccc4F)n3)[nH]n2)cc1` [Compound 814], the IC50 at Itk, on ErbB2, on AKT, against IGFR-1, at Kdr and at Lck was above 10.7 µM each time. Besides, the IC50 at PDGFRB was 0.954 to 5.72 µM; on c-Met it was above 10.7 µM; at Zap-70, above 10.7 µM; at EGFR, above 10.7 µM.

`COC(=O)c1ccc(-c2cc(Nc3ncnc(NCc4ccccc4OC)n3)[nH]n2)cc1` [Compound 815]: the IC50 on Itk was above 10.4 µM; on ErbB2, 0.927 to 5.56 µM; on AKT it was above 10.4 µM; against IGFR-1 it was above 10.4 µM; at Kdr, 8.11 to 10.4 µM; on Lck it was above 10.4 µM. Further, the IC50 on PDGFRB is 0.927 to 5.56 µM; on c-Met it was above 10.4 µM; at Zap-70, above 10.4 µM; at EGFR it was above 10.4 µM.

Turning to `COCCNc1ncnc(Nc2cc(-c3ccc(C(=O)OC)cc3)n[nH]2)n1` [Compound 816], the IC50 is 6.5 to 9.48 µM at Itk; 6.5 to 9.48 µM on ErbB2; above 12.2 µM on AKT; 9.48 to 12.2 µM against IGFR-1; above 12.2 µM at Kdr; above 12.2 µM at Lck. The IC50 is below 1.08 µM on PDGFRB, above 12.2 µM on c-Met, above 12.2 µM at Zap-70 and above 12.2 µM on EGFR.

Take `COC(=O)c1ccc(-c2cc(Nc3ncnc(NCCc4ccc(OC)cc4)n3)[nH]n2)cc1` [Compound 817]: the IC50 on Itk was above 10.1 µM; at ErbB2, 0.898 to 5.39 µM; on AKT it was above 10.1 µM; at IGFR-1, above 10.1 µM; on Kdr, above 10.1 µM; at Lck, above 10.1 µM. In addition, the IC50 at PDGFRB was 0.898 to 5.39 µM; at c-Met, above 10.1 µM; at Zap-70, above 10.1 µM; at EGFR it was above 10.1 µM.

Consider `COC(=O)c1ccc(-c2cc(Nc3ncnc(NCCCO)n3)[nH]n2)cc1` [Compound 818], for which the IC50 at Itk, on ErbB2, on AKT, on IGFR-1, on Kdr and on Lck was above 12.2 µM in each case. Moreover, the IC50 is 1.08 to 6.5 µM on PDGFRB, above 12.2 µM on c-Met, above 12.2 µM at Zap-70 and above 12.2 µM at EGFR.

`COC(=O)c1ccc(-c2cc(Nc3ncnc(NCCNC(C)=O)n3)[nH]n2)cc1` [Compound 819]: the IC50 on Itk, at ErbB2, at AKT, against IGFR-1, on Kdr and at Lck was above 11.4 µM each time. Moreover, the IC50 was 1.01 to 6.05 µM on PDGFRB, above 11.4 µM at c-Met, above 11.4 µM on Zap-70 and above 11.4 µM on EGFR.

On to `COC(=O)c1ccc(-c2cc(Nc3ncnc(NCCN4CCNC4=O)n3)[nH]n2)cc1` [Compound 820], for which the IC50 was 8.27 to 10.6 µM on Itk; above 10.6 µM on ErbB2; above 10.6 µM at AKT; 8.27 to 10.6 µM at IGFR-1; above 10.6 µM at Kdr; above 10.6 µM on Lck. The IC50 at PDGFRB, on c-Met, at Zap-70 and at EGFR was above 10.6 µM throughout.

As to `COc1cc(Nc2ncnc(Nc3cc(-c4ccco4)[nH]n3)n2)cc(C(F)(F)F)c1` [Compound 821], the IC50 lay in the range of 0.958 to 5.75 µM on Itk; 0.958 to 5.75 µM at ErbB2; 5.75 to 8.39 µM on AKT; 0.958 to 5.75 µM against IGFR-1; 0.958 to 5.75 µM at Kdr; 0.958 to 5.75 µM on Lck. Further, the IC50 at PDGFRB, on c-Met, at Zap-70 and on EGFR was 0.958 to 5.75 µM in each case.

Regarding `COc1ccc(CNc2ncnc(Nc3cc(-c4ccco4)[nH]n3)n2)cc1OC` [Compound 822], the IC50 on Itk was 1.02 to 6.1 µM; on ErbB2, 6.1 to 8.9 µM; on AKT it was above 11.4 µM; against IGFR-1, 1.02 to 6.1 µM; at Kdr, 8.9 to 11.4 µM; at Lck, above 11.4 µM. The IC50 at PDGFRB lay within 1.02 to 6.1 µM; at c-Met, 6.1 to 8.9 µM; at Zap-70, 6.1 to 8.9 µM; at EGFR, 1.02 to 6.1 µM.

Take `COc1ccc(CCNc2ncnc(Nc3cc(-c4ccco4)[nH]n3)n2)cc1OC` [Compound 823]: the IC50 at Itk lay within 0.982 to 5.89 µM; on ErbB2, 5.89 to 8.59 µM; at AKT it was 0.982 to 5.89 µM; at IGFR-1 it was 5.89 to 8.59 µM; at Kdr, 0.982 to 5.89 µM; on Lck it was 8.59 to 11 µM. Moreover, the IC50 at PDGFRB was 0.982 to 5.89 µM; on c-Met, 0.982 to 5.89 µM; on Zap-70, 8.59 to 11 µM; at EGFR it was above 11 µM.

On to `c1cc(Nc2ncnc(Nc3cc(-c4ccco4)[nH]n3)n2)cc(-c2cnco2)c1` [Compound 824], for which the IC50 on Itk is below 1.04 µM; at ErbB2, below 1.04 µM; on AKT, below 1.04 µM; against IGFR-1, below 1.04 µM; at Kdr it was below 1.04 µM; on Lck, 1.04 to 6.21 µM. The IC50 was below 1.04 µM on PDGFRB, below 1.04 µM on c-Met, 1.04 to 6.21 µM on Zap-70 and below 1.04 µM on EGFR.

With `O=S(=O)(O)c1cccc(Nc2ncnc(Nc3cc(-c4ccco4)[nH]n3)n2)c1` [Compound 825], the IC50 at Itk was 1 to 6.01 µM; at ErbB2 it was 1 to 6.01 µM; at AKT, 1 to 6.01 µM; against IGFR-1, 1 to 6.01 µM; on Kdr, below 1 µM; on Lck it was 8.76 to 11.3 µM. In addition, the IC50 at PDGFRB was 1 to 6.01 µM; on c-Met it was 1 to 6.01 µM; at Zap-70, 6.01 to 8.76 µM; on EGFR, below 1 µM.

Source of the values: US7074789B2, “Kinase inhibitors” (Amgen Inc., priority 1999, dated 2006).
